Data published in patent US10398142B2, “Polycationic amphiphiles as antimicrobial agents” (priority 2013, dated 2019).
Read-outs that look alike come from different tables or passages of the source. Marks after values point to notes of the source that are not given here.

Assays:
[1] = tested on: Enterococcus faecalis (OG1RF); experiment: Minimum inhibitory concentration (MIC), broth microdilution; assay type: cell-based; conditions: for MIC: read-out: MIC E. faecalis
Method in brief: (§1)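 Broth microdilution: two-fold serial dilutions (twelve concentrations) mixed 1:1 with overnight cultures diluted to ca. 10^6 cfu/mL in Mueller-Hinton media, incubated statically at 37° C for 72 hours. MIC is lowest concentration with no growth visible to the naked eye, majority of three independent experiments.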

[2] = tested on: Escherichia coli (MC4100); experiment: as above; assay type: cell-based; conditions: for MIC: read-out: MIC E. coli
Method in brief: as §1

[3] = tested on: Pseudomonas aeruginosa (PAO1); experiment: as above; assay type: cell-based
Method in brief: as §1

[4] = tested on: Staphylococcus aureus MSSA (SH1000); experiment: as above; assay type: cell-based
Method in brief: as §1

[5] = tested on: CA-MRSA (USA300-0114); experiment: as above; assay type: cell-based, Staphylococcus aureus; conditions: for MIC: read-out: MIC CA-MRSA
Experimental: (§2) Different biological assays were performed. […] All cultures, with the exception of E. faecalis, were grown with shaking at 250 rpm.
(§3) Minimum inhibitory concentration (MIC) values against bacteria were measured using standard method. Compounds were serially diluted two-fold from an aqueous stock solution to yield twelve test concentrations. Overnight S. aureus, E. faecalis, E. coli, P. aeruginosa, CA-MRSA, and HA-MRSA cultures diluted to ca. 10^6 cfu/mL in Mueller-Hinton media and 100 μL were inoculated into each well of a U-bottom 96-well plate (BD Biosciences, BD351177) containing 100 μL of compound solution. Plates were incubated statically at 37° C. for 72 hours upon which time wells were evaluated visually for bacterial growth. The MIC was determined as the lowest concentration of compound resulting in no bacterial growth visible to the naked eye, based on the majority of three independent experiments. Positive and negative aqueous and media controls were conducted for each trial.

[6] = tested on: HA-MRSA (ATCC 33591); experiment: as above; assay type: cell-based, Staphylococcus aureus; conditions: for MIC: read-out: MIC HA-MRSA
Experimental: as §2, §3

[7] = tested on: S. aureus (MSSA, SH1000) biofilms; experiment: Minimum biofilm eradication concentration (MBEC), regrowth assay; assay type: cell-based, Staphylococcus aureus; conditions: for MBEC MSSA: Table 5, SH1000
Method in brief: (§4)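 Static 24 h biofilms at 37° C. (BHI for S. aureus, Todd Hewitt for E. faecalis), then 16 h compound exposure, PBS washes and overnight regrowth in fresh media. MBEC is the lowest concentration giving final OD595 below 0.1; four replicates per concentration.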

[8] = tested on: E. faecalis biofilms; experiment: as above; assay type: cell-based, Enterococcus faecalis
Method in brief: as §4

[9] = tested on: CA-MRSA (USA300-0114) biofilms; experiment: as above; assay type: cell-based, Staphylococcus aureus; conditions: for MBEC CA-MRSA: Table 5, USA300-0114
Experimental: A regrowth assay was used to establish the MBEC of a compound to evaluate the antibiofilm activity. See also H. Ceri, M. Olson, D. Morck, D. Storey, R. Read, A. Buret, B. Olson, Methods Enzymol. 2001, 337, 377.
Different biological assays were performed. For all biological assays, laboratory strains of methicillin-susceptible Staphylococcus aureus MSSA (SH1000), Enterococcus faecalis (OG1RF), Escherichia coli (MC4100), Pseudomonas aeruginosa (PAO1), community-acquired methicillin-resistant Staphylococcus aureus CA-MRSA (USA300-0114), and hospital-acquired methicillin-resistant Staphylococcus aureus HA-MRSA (ATCC 33591) were grown at 37° C. overnight from freezer stocks in 10 mL of the media indicated for each assay. All cultures, with the exception of E. faecalis, were grown with shaking at 250 rpm.
Minimum biofilm eradication concentration (MBEC) was also measured. To each well of a flat-bottomed 96-well plate (Corning 3370), 8 μL of overnight bacterial culture was brought to a volume of 200 μL with fresh media (BHI for S. aureus and MRSA, Todd Hewitt (TH) for E. faecalis). Plates were incubated statically for 24 hours at 37° C. to establish biofilms. After 24 hours, the wells were carefully emptied by inverting the plate and gently shaking. A pre-mixed solution of media and aqueous compound stock solution was added to each well and plates were incubated at 37° C. 16 hours after pre-established biofilms were treated with compound, the media from each well was removed, biofilms were washed three times with 200 μL PBS to remove planktonic cells, and biofilms were incubated overnight at 37° C. in 200 μL of fresh media to allow any viable cells to continue growing. The wells were then vigorously pipetted to resuspend the biofilm cells and the OD at 595 nm was measured using a plate reader (POLARstar Omega, BMG Labtech). Biofilms reaching a final OD of less than 0.1 were considered eradicated and the lowest concentration of antibiotic corresponded to the MBEC. Four replicates were completed for each concentration of compound as well as positive and negative controls.

[10] = tested on: red blood cells (defibrinated sheep blood); experiment: Hemolysis assay (Lysis20); conditions: concentration at which less than 20% of red blood cells are lysed
Experimental: Hemolysis assays (Lysis20) were performed according to the procedure detailed in Peng, L., DeSousa, J., Su, Z., Novak, B. M., Nevzorov, A. A., Garland, E. R., and Melander, C., Inhibition of Acinetobacter baumannii biofilm formation on a methacrylate polymer containing a 2-aminoimidazole subunit, Chem. Comm. 2011, 47, 4896-4898. Defibrinated sheep blood was purchased from Hemostat Labs (DSB 100). Compounds representative of each class were serially diluted in sterile PBS from aqueous stock solutions and incubated with resuspended blood cells. The OD of the final suspensions were measured directly using plate reader. TritonX (1% by volume) served as a positive control (100% lysis marker) and sterile PBS served as a negative control (0% lysis marker).
Lysis20 indicates the concentration of compound (in μM) at which less than 20% of red blood cells are lysed.

[11] = tested on: MSSA (SH1000); experiment: Resistance development, liquid culture serial passage; assay type: cell-based, Staphylococcus aureus; conditions: for elevated concentration with consistent growth: MSSA (SH1000) passaged with sub-lethal doses
Experimental: (§5) Resistance development such as liquid culture resistance assay was performed. […] Once a day, an aliquot of bacterial culture from the highest concentration allowing bacterial growth was diluted 1:10,000 in fresh media containing a range of antibacterial compound. This process was repeated for several hundred generations.
(§6) Resistance Development Assays: Liquid culture serial passage protocols, in which bacteria are successively grown at sub-lethal concentrations of antibacterial compound, were employed.

[12] = tested on: S. aureus biofilms; experiment: Crystal violet staining and confocal microscopy of pre-established biofilms; assay type: cell-based, Staphylococcus aureus; conditions: compared to the aqueous control or norspermidine; 16 h post-treatment
Experimental: Left: Submerged S. aureus biofilms 16 h post-treatment with the indicated final well concentration of compound. Middle: Biofilms stained with 1% crystal violet. Right: Confocal microscopy images of biofilms 16 h post-treatment.
The inventors have determined that both cationic character and alkyl side chains are important for biofilm eradication.

[13] = tested on: CA-MRSA (USA300-0114); experiment: Resistance development, liquid culture serial passage; assay type: cell-based, Staphylococcus aureus
Experimental: as §5, §6

[14] = Table 3, read-out: MIC P. aeruginosa
[15] = Table 3, read-out: MIC S. aureus
[16] = Table 2, pre-established biofilm, ± values varied between 50 and 100 μM for the six trials
[17] = Table 1, read-out: MIC P. aeruginosa
[18] = Table 1, read-out: MIC S. aureus
[19] = Table 4, SH1000, read-out: MIC MSSA
[20] = table for compound (12,3,2,3,12)
[21] = over 24 days (>500 generations)
[22] = over a period of at least 14 days

| Structure (SMILES) | MIC ([1]; Table 3) [µM] | MIC ([2]; Table 3) [µM] | MIC [3, 14] [µM] | MIC [4, 15] [µM] | MBEC S. aureus [7, 16] | MBEC MSSA [7] [µM] | MBEC E. faecalis [8, 16] [µM] | MBEC E. faecalis ([8]; Table 5) [µM] | MBEC CA-MRSA [9] [µM] | Lysis20 ([10]; Table 4) [µM] | MIC ([1]; Table 1) [µM] | MIC ([2]; Table 1) [µM] | MIC [3, 17] [µM] | MIC [4, 18] [µM] | MIC [4, 19] [µM] | MIC ([5]; Table 4, USA300-0114) [µM] | MIC ([6]; Table 4, ATCC 33591) [µM] | effect against pre-established biofilms, crystal violet staining [12] | other results |
| --- | --- | --- | --- | --- | --- | --- | --- | --- | --- | --- | --- | --- | --- | --- | --- | --- | --- | --- | --- |
| CCCCCCCCCCCC[N+](C)(C)Cc1ccccc1.[Cl-] [Bn,12, benzyldimethyldodecylammonium chloride, reference compound] | 8 | 32 | 63 | 8 | 200 µM | >200 | 200 | ≥200 | ≤200 | 63 |  |  |  |  |  |  |  |  | MIC ([1]; Enterococcus faecalis): 8 µM; MIC ([2]; Escherichia coli): 32 µM; MIC ([3]; Pseudomonas aeruginosa, PAO1, read-out: MIC P. aeruginosa): 63 µM; MIC ([4]; Staphylococcus aureus, MSSA, read-out: MIC MSSA): 8 µM; MIC ([4]; Staphylococcus aureus, MSSA, read-out: MIC S. aureus): 8 µM; MIC ([5]; Staphylococcus aureus): 32 µM; potency against CA-MRSA strain possessing qacA/R (in words) ([5]; compared with MSSA): decreased potency; MIC ([6]; Staphylococcus aureus): 8 µM; resistance development in MSSA (in words) ([11]; Bn,12: 31 days (>700 generations), 10,10: 10 days, 240 generations): development of resistance; elevated concentration with consistent growth ([11]; at day 11): 2 ×MIC; elevated concentration with consistent growth ([11]; at day 24): 4 ×MIC |
| CCCCCCCCCCCC[N+](C)(C)CCCN(C)CCC[N+](C)(C)CCCCCCCCCCCC.[Br-].[Br-] [12,3,0,3,12] | 2 | 1 | 4 | 1 | 100 µM | 50 | 50 | 100 | 150 ± 50 | 4 | ≤0.25 | ≤0.25 | 4 | 1 | 1 | 1 | 0.5 | significant effect |  |
| CCCCCCCCCCCC[N+](C)(C)CCC[N+](C)(C)CCC[N+](C)(C)CCCCCCCCCCCC.[Br-].[Br-].[I-] [12,3,1,3,12] | 2 | 2 | 8 | 1 | 100 µM | 100 | 50 | 200 | 150 ± 50 | 8 | 1 | 1 | 2 | 0.5 | 1 | 0.5 | 1 | significant effect |  |
| CCCCCCCCCCCC[N+](C)(C)CCC[N+](C)(CC)CCC[N+](C)(C)CCCCCCCCCCCC.[Br-].[Br-].[Br-] [12,3,2,3,12] |  |  |  |  |  | 100 |  | 100 | 100 | 8 |  |  |  |  | 0.5 | 0.5 | 1 |  | MIC E. faecalis (OG1RF) [1, 20]: 0.5 µM; MIC E. coli (MC4100) [2, 20]: 1 µM; MIC P. aeruginosa (PA01) [3, 20]: 2 µM; MIC S. aureus (SH1000) [4, 20]: 0.5 µM; MIC CA-MRSA (USA300-0114) [5, 20]: 0.5 µM; MIC HA-MRSA (ATCC33591) [6, 20]: 1 µM; MBEC S. aureus [7, 20]: 100 µM; MBEC E. faecalis [8, 20]: 100 µM; MBEC USA300-0114 [9, 20]: 100 µM; Lysis20 [10, 20]: 8 µM; resistance in serial passage, CA-MRSA (USA300-0114) [13, 21]: No resistance was observed; resistance in serially passaged liquid culture, USA300-0114 [13, 22]: No resistance was observed; resistance in serial passage, MSSA [11, 21]: No resistance was observed; resistance in serially passaged liquid culture, SH1000 [11, 22]: No resistance was observed |
| CCCCCCCCCCCC[N+](C)(C)CCC[N+](C)(CCC[N+](C)(C)CCCCCCCCCCCC)Cc1ccc(CCCCCCCC)cc1.[Br-].[Br-].[Br-] [12,3,Bn-8,3,12] | 1 | 1 | 4 | 1 |  | 200 |  | 200 | >200 | 8 |  |  |  |  | 2 | 2 | 1 |  |  |
| CCCCCCCCCCCC[N+](C)(C)CCN(C)CC[N+](C)(C)CCCCCCCCCCCC.[Br-].[Br-] [12,2,0,2,12] | 1 | 2 | 4 | 1 | 75 ± 25^a μM | 75 ± 25 | 100 | 100 | 100 | 8 | 2 | 1 | 4 | 1 | 1 | 1 | 0.5 |  |  |
